Measured values taken from PMC6143434 (Molecular neurobiology, 2018).
“And” between values parts separate entries of the source, which are not always exact repeats. Equal values may be shown once. Where a name gives a salt, the structure may show the parent alone. Read-outs that look alike come from different tables or passages of the source. Each block holds one compound with its values, some of them ahead of it.

Experiments:
α2A adrenoceptor [1] = target: T1, α2A adrenoceptor (Homo sapiens, UniProt P08913); assay: G protein activation BRET assay in transfected HEK-293T cells; assay type: cell-based; settings: for EC50: read-out: Potency (EC50) G protein activation
T1 sequence (P08913 1-465): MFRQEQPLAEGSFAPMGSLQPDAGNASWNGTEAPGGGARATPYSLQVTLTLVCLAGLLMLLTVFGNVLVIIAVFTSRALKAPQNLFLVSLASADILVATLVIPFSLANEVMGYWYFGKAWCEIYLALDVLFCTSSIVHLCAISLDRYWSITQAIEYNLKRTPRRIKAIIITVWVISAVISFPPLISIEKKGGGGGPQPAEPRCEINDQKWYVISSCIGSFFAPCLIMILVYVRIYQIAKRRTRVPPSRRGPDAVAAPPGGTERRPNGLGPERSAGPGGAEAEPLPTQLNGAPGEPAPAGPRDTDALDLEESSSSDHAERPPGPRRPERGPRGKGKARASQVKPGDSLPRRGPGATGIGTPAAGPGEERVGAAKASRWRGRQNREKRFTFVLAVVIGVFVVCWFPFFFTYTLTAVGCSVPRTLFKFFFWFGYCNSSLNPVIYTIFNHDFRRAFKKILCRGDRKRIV

α2C adrenoceptor [2] = target: T2, α2C adrenoceptor (Homo sapiens, UniProt P18825); assay: as above; assay type: cell-based
T2 sequence (P18825 1-462): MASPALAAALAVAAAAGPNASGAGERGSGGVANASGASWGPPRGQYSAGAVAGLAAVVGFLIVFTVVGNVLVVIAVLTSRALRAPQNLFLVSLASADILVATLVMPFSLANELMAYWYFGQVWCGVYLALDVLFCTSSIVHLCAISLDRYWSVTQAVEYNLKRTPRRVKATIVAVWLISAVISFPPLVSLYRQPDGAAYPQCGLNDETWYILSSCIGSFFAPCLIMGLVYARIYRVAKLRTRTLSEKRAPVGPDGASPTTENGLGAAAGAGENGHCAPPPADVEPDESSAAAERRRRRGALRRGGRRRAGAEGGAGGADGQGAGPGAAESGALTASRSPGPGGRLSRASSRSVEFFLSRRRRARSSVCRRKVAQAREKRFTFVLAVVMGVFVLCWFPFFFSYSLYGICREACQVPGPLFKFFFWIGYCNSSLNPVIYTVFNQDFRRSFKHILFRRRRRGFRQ

α2A adrenoceptor [3] = target: T1, α2A adrenoceptor; assay: ERK1/2 phosphorylation in CHO cells transfected with α2A-RLuc8 receptor; assay type: cell-based; settings: 5 minutes; for MAPK activation (ERK1/2 phosphorylation): 1 μM
α2A adrenoceptor [4] = target: T1, α2A adrenoceptor
α2C adrenoceptor [5] = target: T2, α2C adrenoceptor
α2C adrenoceptor [6] = target: T2, α2C adrenoceptor; assay: cell-based
α2A adrenoceptor [7] = target: T1, α2A adrenoceptor; assay: DMR label-free assay in CHO cells transfected with α2A-RLuc8 receptor; assay type: cell-based; settings: for DMR response: at 300 nM, Fig. 6 legend: 100 nM
[8] = target: α2 adrenoceptors (striatum, α2A and α2C); assay: [3H]RX821002 binding; parameters: species or system sheep
D2-like receptor D2L = settings: read-out: EC50 values, G protein activation, across Gi/o protein subtypes; cited from earlier work
D2-like receptors = D2-like receptors (Ovis aries, UniProt A0ACI6R699); assay: [3H]YM-09151-2 competition binding, sheep brain striatum; settings: sheep striatal membranes; any concentration up to 10 μM
human D2 receptor = human D2 receptor (Homo sapiens, UniProt P14416); assay type: binding; settings: HEK-293T membranes, up to 10 μM; data not shown
human D2 receptor, sequence (P14416 whole entry): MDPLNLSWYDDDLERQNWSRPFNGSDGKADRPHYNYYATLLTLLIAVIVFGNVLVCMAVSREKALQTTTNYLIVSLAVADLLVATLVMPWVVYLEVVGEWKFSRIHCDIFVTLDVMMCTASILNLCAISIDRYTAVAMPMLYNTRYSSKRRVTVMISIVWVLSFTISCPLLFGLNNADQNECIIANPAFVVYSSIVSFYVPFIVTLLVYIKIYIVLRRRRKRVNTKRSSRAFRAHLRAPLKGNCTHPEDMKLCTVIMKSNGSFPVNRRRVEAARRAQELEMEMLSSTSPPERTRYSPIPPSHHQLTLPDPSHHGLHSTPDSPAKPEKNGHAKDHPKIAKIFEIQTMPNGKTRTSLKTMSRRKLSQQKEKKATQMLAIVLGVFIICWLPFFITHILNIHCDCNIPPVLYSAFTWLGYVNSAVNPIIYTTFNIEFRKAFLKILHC

human D3 receptor = human D3 receptor (Homo sapiens, UniProt P35462); assay type: binding; settings: HEK-293T membranes, up to 10 μM; data not shown
human D3 receptor, sequence (P35462 whole entry): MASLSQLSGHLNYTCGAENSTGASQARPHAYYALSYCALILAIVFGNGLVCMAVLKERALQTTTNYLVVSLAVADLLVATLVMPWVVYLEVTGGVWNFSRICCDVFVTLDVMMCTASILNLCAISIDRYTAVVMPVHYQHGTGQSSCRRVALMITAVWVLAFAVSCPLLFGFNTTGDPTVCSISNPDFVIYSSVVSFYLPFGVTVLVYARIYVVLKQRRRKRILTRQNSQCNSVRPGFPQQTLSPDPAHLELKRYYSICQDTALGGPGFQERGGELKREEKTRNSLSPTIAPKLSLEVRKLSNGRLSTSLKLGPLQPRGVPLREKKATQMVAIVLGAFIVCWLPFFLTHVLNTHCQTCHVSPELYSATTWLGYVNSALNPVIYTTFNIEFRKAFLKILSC

human D4 receptor = target: T3, human D4 receptor (Homo sapiens, UniProt P21917); assay type: binding; settings: HEK-293T membranes, up to 10 μM; data not shown
T3 sequence (P21917 1-419): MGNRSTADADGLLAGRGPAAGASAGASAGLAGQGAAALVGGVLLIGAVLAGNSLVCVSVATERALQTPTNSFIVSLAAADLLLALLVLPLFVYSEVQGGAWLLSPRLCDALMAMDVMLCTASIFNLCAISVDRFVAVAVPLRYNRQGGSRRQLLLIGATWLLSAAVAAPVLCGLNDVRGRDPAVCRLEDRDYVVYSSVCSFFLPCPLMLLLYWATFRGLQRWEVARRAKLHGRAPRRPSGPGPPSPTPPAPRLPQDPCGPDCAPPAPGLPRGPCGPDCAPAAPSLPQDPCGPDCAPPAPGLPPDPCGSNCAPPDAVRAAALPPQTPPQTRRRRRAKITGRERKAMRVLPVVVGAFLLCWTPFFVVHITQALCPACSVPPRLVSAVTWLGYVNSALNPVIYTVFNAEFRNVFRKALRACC

[9] = target: α2 adrenoceptors (cortex, mostly α2A) (Ovis aries, UniProt A0ACI6PY47); assay: [3H]RX821002 binding; parameters: species or system sheep
[10] = read-out: KDB1, striatum, vs [3H]RX821002, two-state dimer model, first protomer
[11] = read-out: KDB2, striatum, vs [3H]RX821002, two-state dimer model, second protomer
[12] = read-out: KDB1, cortex, vs [3H]RX821002, two-state dimer model, first protomer
[13] = read-out: KDB2, cortex, vs [3H]RX821002, two-state dimer model, second protomer

- effect on DA and NE activation of DMR (α2A adrenoceptor [7]; BRL 44408 1 μM, 30 minutes pretreatment): decreased
SMILES: CC1c2ccccc2CN1CC1=NCCN1 (stereo not shown) [BRL 44408]

- blockade of Gαo1 activation induced by 10 μM 7-OH-PIPAT or 10 μM quinpirole (α2A adrenoceptor [1]): completely blocked
- blockade of Gαo1 activation induced by 10 μM 7-OH-PIPAT or 10 μM quinpirole (α2C adrenoceptor [2]): completely blocked
- blockade of Gi/o-dependent effects of NE and DA on adenylyl cyclase (α2A adrenoceptor [4]; yohimbine 10 μM): blocked
- blockade of Gi/o-dependent effects of NE and DA on adenylyl cyclase (α2C adrenoceptor [5]; yohimbine 10 μM): blocked
SMILES: COC(=O)[C@@H]1[C@H]2C[C@H]3c4[nH]c5ccccc5c4CCN3C[C@@H]2CC[C@@H]1O [yohimbine, yohimbine hydrochloride]

- displacement of [3H]YM-09151-2 binding (D2-like receptors): did not displace
- displacement of [3H]YM-09151-2 binding (human D2 receptor): identical results
- displacement of [3H]YM-09151-2 binding (human D3 receptor): identical results
- displacement of [3H]YM-09151-2 binding (human D4 receptor): identical results
SMILES: COC1(C2=NCCN2)COc2ccccc2O1 (stereo not shown) [RX821002]

- Kd ([9]; read-out: affinity value (KDA1) of the radioligand, saturation experiments, cortical tissue, n=4-8): 0.06 ± 0.01 nM
- Kd ([8]; read-out: affinity value (KDA1) of the radioligand, saturation experiments, striatal tissue, n=4-8): 0.07 ± 0.01 nM
SMILES: COC1(C2=NCCN2)COc2ccccc2O1 (stereo not shown) [[^3H]RX821002]

Continued, compound first:

SMILES: NC[C@H](O)c1ccc(O)c(O)c1 [NE, L-(-)-norepinephrine (+)-bitartrate salt monohydrate]
- Efficacy (Emax) G protein activation (α2A adrenoceptor [1]; Gαi1, α2A): 100 ± 5 percentage of NE values
- Efficacy (Emax) G protein activation (α2A adrenoceptor [1]; Gαi2, α2A): 100 ± 10 percentage of NE values
- Efficacy (Emax) G protein activation (α2A adrenoceptor [1]; Gαi3, α2A): 100 ± 10 percentage of NE values
- Efficacy (Emax) G protein activation (α2A adrenoceptor [1]; Gαo1, α2A): 100 ± 7 percentage of NE values
- Efficacy (Emax) G protein activation (α2A adrenoceptor [1]; Gαo2, α2A): 100 ± 9 percentage of NE values
- Efficacy (Emax) G protein activation (α2C adrenoceptor [2]; Gαi1, α2C, ND: not detectable): 100 ± 2 percentage of NE values
- Efficacy (Emax) G protein activation (α2C adrenoceptor [2]; Gαi2, α2C): 100 ± 7 percentage of NE values
- Efficacy (Emax) G protein activation (α2C adrenoceptor [2]; Gαi3, α2C): 100 ± 9 percentage of NE values
- Efficacy (Emax) G protein activation (α2C adrenoceptor [2]; Gαo1, α2C): 100 ± 10 percentage of NE values
- Efficacy (Emax) G protein activation (α2C adrenoceptor [2]; Gαo2, α2C): 100 ± 8 percentage of NE values
- EC50 (α2C adrenoceptor [2]; Potency (EC50) G protein activation, Gαi3, α2C): 0.4 ± 0.2 nM
- increase of ERK1/2 phosphorylation levels (α2A adrenoceptor [3]; 300 nM): 3 fold over basal
- Gs activation (inverted U-shaped curve, high ligand concentrations) (α2A adrenoceptor [4]; at 10 and 100 μM): promoted Gs activation
- Gs activation (inverted U-shaped curve, high ligand concentrations) (α2C adrenoceptor [5]; at 10 and 100 μM): promoted Gs activation
- EC50 (α2C adrenoceptor [6]): 7 ± 4 nM

SMILES: NCCc1ccc(O)c(O)c1 [DA, Dopamine hydrochloride]
- Kd [8, 10]: 6 nM
- Kd [8, 11]: 1000 nM
- EC50 (D2-like receptor D2L): 130 to 400 nM

SMILES: Clc1cccc(Cl)c1N=C1NCCN1 [Clonidine, clonidine hydrochloride]
- Kd [8, 10]: 0.036 nM
- Kd [8, 11]: 20 nM
- Efficacy (Emax) G protein activation (α2A adrenoceptor [1]): 110 ± 10 percentage of NE values and 120 ± 2 percentage of NE values and 120 ± 5 percentage of NE values and 89 ± 6 percentage of NE values and 112 ± 8 percentage of NE values

SMILES: CCCN(C/C=C/I)C1CCc2ccc(O)cc2C1 (stereo not shown) [7-OH-PIPAT, 7-OH-PIPAT maleate]
- DCB (cooperativity index) ([9]; cortex, vs [3H]RX821002): DCB: -1.1
- Kd [9, 12]: 9 nM
- Kd [9, 13]: 430 nM
- Kd [8, 10]: 51 nM
- Efficacy (Emax) G protein activation (α2A adrenoceptor [1]; Gαi1, α2A): 94 ± 6 percentage of NE values
- Efficacy (Emax) G protein activation (α2A adrenoceptor [1]; Gαi2, α2A): 55 ± 2 percentage of NE values
- Efficacy (Emax) G protein activation (α2A adrenoceptor [1]; Gαi3, α2A): 71 ± 6 percentage of NE values
- Efficacy (Emax) G protein activation (α2A adrenoceptor [1]; Gαo1, α2A): 81 ± 9 percentage of NE values
- Efficacy (Emax) G protein activation (α2A adrenoceptor [1]; Gαo2, α2A): 85 ± 4 percentage of NE values
- EC50 (α2A adrenoceptor [1]; Gαo1, α2A): 100 ± 20 nM
- EC50 (α2A adrenoceptor [1]; Gαo2, α2A): 66 ± 7 nM
- Efficacy (Emax) G protein activation (α2C adrenoceptor [2]; Gαi1, α2C, ND: not detectable): 41 ± 1 percentage of NE values
- Efficacy (Emax) G protein activation (α2C adrenoceptor [2]; Gαi2, α2C): 90 ± 20 percentage of NE values
- Efficacy (Emax) G protein activation (α2C adrenoceptor [2]; Gαi3, α2C): 90 ± 10 percentage of NE values
- Efficacy (Emax) G protein activation (α2C adrenoceptor [2]; Gαo1, α2C): 98 ± 7 percentage of NE values
- Efficacy (Emax) G protein activation (α2C adrenoceptor [2]; Gαo2, α2C): 106 ± 3 percentage of NE values
- EC50 (α2C adrenoceptor [2]; read-out: Potency (EC50) G protein activation, Gαi3, α2C): 5 ± 3 nM
- DMR response (α2A adrenoceptor [7]): significant response
- MAPK activation (ERK1/2 phosphorylation) (α2A adrenoceptor [3]): able to produce MAPK activation

SMILES: Cc1ncc(CN2CC=C(c3ccccc3)CC2)c(N)n1.Cl.Cl [RO-105824, RO-105824 dihydrochloride]
- Kd [9, 12]: 0.055 nM
- Kd [9, 13]: 4000 nM
- Kd [8, 10]: 0.42 nM
- G protein activation (agonist effect) (α2A adrenoceptor [1]; α2A, Gαi2 and Gαi3): small efficacy
- G protein activation (agonist effect) (α2A adrenoceptor [1]; α2A, Gαi/o subtypes other than Gαi2 and Gαi3): did not produce a significant activation
- inhibition of the agonistic effect of clonidine (1 μM) (α2A adrenoceptor [1]; α2A, Gαo1): did counteract
- inhibition of the agonistic effect of clonidine (1 μM) (α2C adrenoceptor [2]; α2C, Gαo1): did counteract
- G protein activation (agonist effect) (α2C adrenoceptor [2]; α2C, any of the Gαi/o subtypes): did not produce a significant activation
- DMR response (α2A adrenoceptor [7]): substantially lower
- MAPK activation (ERK1/2 phosphorylation) (α2A adrenoceptor [3]): able to produce MAPK activation
